Read-outs that look alike come from different tables or passages of the source.
Tests used:
[1] = biological target: P. aeruginosa PqsA (Pseudomonas aeruginosa, UniProt Q9I4X3); test: PqsA inhibition, spectrophotometric assay with recombinant PqsA (anthranilyl-CoA formation at 365 nm); assay type: biochemical; details: uncompetitive with respect to anthranilate and CoA
Method: PqsA inhibitors were evaluated using a quantitative spectrophotometric assay with recombinant PqsA, detecting formation of anthranilyl-CoA at 365 nm. See, e.g., Coleman et al. (2008) J. Bacteriol. 190, 1247. […] See, e.g., Morrison et al. Biochim. Biophys. Acta, Enzymol. 185, 269-286; Williams et al. (1979) Methods Enzymol. 63, 437. […] See, e.g., Qiao et al. (2007) J. Am. Chem. Soc. 129, 6350.
Reactions were performed at 37° C. in a 0.5 mL volume in a Varian Cary 100 UV-visible spectrophotometer with Cary WinUV software. Reaction mixtures contained 100 mM HEPES, pH 8.0, 0.2 mM dithiothreitol, 2 mM MgCl2, ˜3.3 μg PqsA protein (˜60 nM final), and depending on which substrate varied, 1 mM ATP (disodium salt), 0.5 mM coenzyme A (tri-lithium salt), 0.5 mM sodium anthranilate, and inhibitor (usually as a DMSO stock solution). Reactions were blanked and preincubated with all components except anthranilate at 37° C. for 1 min, then initiated by addition of anthranilate. Formation of anthraniloyl-CoA was monitored ance at 365 nm (ε=5.5 mM−1 cm−1) for 1 min. Data were analyzed using GraphPad Prism 6 software.

[2] = test system: MRC5 cells; test: Cell health and viability image-based study (fluorescence microscopy), MRC5; details: for IC50: Homo sapiens, MRC5, imaging; for toxicity in words, imaging, MRC5: up to 1000 μM
Method: The multiparametric assay developed surveys a number of elements of cell health simultaneously. Using a combination of 2 dyes, we are able to simultaneously measure nuclear morphology, membrane integrity and cell proliferation. All measurements are made on live cells after an incubation time of 24H. Hoechst 33342 is used to measure total number of cells, nuclear morphology and cell proliferation. The nuclear impermeable dye Syto17 is used to assess the nuclear membrane integrity by measuring the nuclear translocation of the dye when the membrane gets porous after incubation with a toxic compound. Cells were plated at a density of 1500 cells/25 al in well in a 384 wells plate the day before incubation with the drugs. The following day, 0.1 al of the source plate are added to the assay plate. Then, 25 al of a fluorophores mixture containing Hoechst 33342, Syto17 diluted in EMEM was added to each well. Plates are read after 48 h incubation in the ImageXpress instrument (Molecular Devices) using the appropriate filters. Images are analyzed using an application of MetaXpress software (Molecular Devices) and data are presented using Prism software. Low Signal Control (C23): 5 μM Staurosporine; High Signal Control (C24): DMSO.

[3] = test system: MRC5 cells; test: Cytotoxicity cell viability assay (CellTiter Glo), MRC5; assay type: cell-based; details: for IC50: Homo sapiens, MRC5, 48 hrs, luminescence; for toxicity in words, CellTiter Glo, MRC5: MRC5, luminescence readout, up to 1000 μM
Text: Promega Cell Titer-Glo utilizes the ATP dependent conversion of Luciferin to Oxyluciferin by a recombinant Luciferase in order to quantify the number of metabolically active cells in a sample. Quantification is possible because the number of RLU's detected is linearly proportional to the amount of ATP produced by metabolically active cells in culture at the time of lysis. Therefore, the relative cytotoxicity of each compound can be tested by quantifying the amount of ATP present in each microtiter well as compared to control groups. HepG2 and MRC5 were plated at a density of 1500 cells/25 al in well in the assay plate and allowed to settle overnight. 0.1 μL of compounds was then transferred from the source plate, into the cell assay plates. The cells were left to incubate with the compounds for 48 hrs, after which, 25 μL of Promega Cell Titer-Glo was added to each well, and allowed to incubate at room temperature with shaking for 20 minutes. RLU's for each well were then recorded on a BioTek Synergy NEO. DMSO was used as negative control

[4] = test system: pyocyanin production by P. aeruginosa strain PA14; test: Pyocyanin production by P. aeruginosa strain PA14; assay type: cell-based, Pseudomonas aeruginosa; details: 1 mM, 24 h
Method: Production of pyocyanin by P. aeruginosa strain PA14 was performed in triplicate in roundbottom glass tubes containing 5-mL cultures in LB medium. Tubes tilted at ˜60° angle were incubated at 37° C. in an orbital shaker at 200 rpm. Cultures were inoculated with 15-h preculture in LB in order to obtain a starting OD600 nm=0.05, with or without inhibitors added. At 24 h, 1 mL of each culture was thoroughly vortexed and centrifuged (12,000 g, 5 min). Next, 0.8 mL of the supernatant was removed and the OD690 nm was measured. The ratio of the absorbance compound-treated or MvfR^− cultures and untreated controls was calculated to provide the data in FIG. 7B.
The ability of these PqsA inhibitors to block production of the virulence factor pyocyanin was investigated. […] See, e.g., Starkey et al. (2014) PLoS Pathog. 10, e1004321; Storz et al. (2012) J. Am. Chem. Soc. 134, 16143; Thomann et al. (2016) ACS Chem. Biol. 11, 1279. Haloanthranilate substrate analogues have been reported to inhibit both quinolone and pyocyanin production but may impact multiple targets in this complex signaling network. This is indicative of the complex relationship between HHQ and PQS quinolone biosynthesis, induction of the MvfR regulon, and production of pyocyanin.

[5] = Pharmacokinetics in mice, plasma and lung; assay type: in vivo; details: 10 mg/kg intraperitoneal
Method: Twenty-four female mice were weighed and administered anthranilyl-AMS intraperitoneally at 10 mg/kg dose. The animals assigned for 24 hours sampling after dosing were kept in metabolic cages to collect urine and feces at an interval of 0 to 4, 4 to 8, and 8 to 24 hours. Approximately 60 μL of blood samples were collected from retro orbital plexus at 0.08, 0.25, 0.5, 1, 2, 4, 8, and 24 hours following i.p. administration. The blood samples were collected from three mice under light isoflurane anesthesia at each time point in labeled micro centrifuge tube containing K2EDTA solution. Blood samples were centrifuged at 4000 rpm for 10 minutes at 4±2° C. Immediately after plasma collection the animals were humanely euthanized by carbon dioxide asphyxiation, and lung samples were collected from each mouse at 0.08, 0.25, 0.5, 1, 2, 4, 8, and 24 hours. The tissue samples were then homogenized using ice-cold phosphate buffer saline (pH 7.4), and the total homogenate volume was three times of the tissue weight. The collected feces were weighed and homogenized with 9 volumes of ice-cold phosphate buffer saline (pH 7.4), and homogenates were stored below −70° C. until analysis. All samples were stored below −70° C. until sample analysis. The plasma and tissue samples were processed using protein precipitation with acetonitrile (ACN) and analyzed with fit for purpose LC-MS/MS method. Pharmacokinetic parameters were calculated using the non-compartmental analysis tool of Phoenix WinNonlin® (Version 6.3).

[6] = Hoechst 33342, read-out: Cell Count IC50, MRC5
[7] = Syto17, read-out: Nuclear membrane integrity IC50, MRC5

Sequence of P. aeruginosa PqsA (Q9I4X3 whole entry): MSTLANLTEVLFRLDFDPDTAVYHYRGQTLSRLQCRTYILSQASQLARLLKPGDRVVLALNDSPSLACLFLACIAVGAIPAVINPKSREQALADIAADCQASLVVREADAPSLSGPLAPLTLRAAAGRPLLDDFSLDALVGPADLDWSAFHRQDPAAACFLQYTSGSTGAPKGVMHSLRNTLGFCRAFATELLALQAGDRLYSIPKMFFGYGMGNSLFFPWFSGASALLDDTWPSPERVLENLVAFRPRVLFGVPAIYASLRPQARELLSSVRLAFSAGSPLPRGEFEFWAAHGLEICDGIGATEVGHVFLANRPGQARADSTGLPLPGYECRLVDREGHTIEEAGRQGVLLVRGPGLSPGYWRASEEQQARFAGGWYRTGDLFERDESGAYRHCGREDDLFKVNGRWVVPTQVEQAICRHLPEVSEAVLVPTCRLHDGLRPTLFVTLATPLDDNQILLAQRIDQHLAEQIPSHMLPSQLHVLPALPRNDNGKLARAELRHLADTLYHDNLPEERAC

For `Nc1ccccc1C(=O)NS(=O)(=O)NC[C@H]1O[C@@H](n2cnc3c(N)ncnc32)[C@H](O)[C@@H]1O` [anthranilyl-AMSN, Anthranilyl-AMSN], the “mode of PqsA inhibition” value [1] was “competitive inhibitors with respect to ATP”, the IC50 [2, 6] was 58.8 µM and the IC50 [2, 7] was 74.3 µM. For the same compound, the “toxicity in words, imaging, MRC5” value [2] was “significant toxicity in the tested range”, the IC50 [3] was 33.7 µM and the “toxicity in words, CellTiter Glo, MRC5” value [3] was “significant toxicity in the tested range”. The “inhibition of pyocyanin production” value [4] was “neither inhibited pyocyanin production”.

With `Nc1ccccc1C(=O)NS(=O)(=O)OC[C@H]1O[C@@H](n2cnc3c(N)ncnc32)[C@H](O)[C@@H]1O` [anthranilyl-AMS, Anthranilyl-AMS] the AUC lung ([5]; lung) was 63.9 μg · min/mL or μg · min/g, the Cmax lung ([5]; lung) was 2000 ± 300 ng/mL and the half-life ([5]; female, mouse, ip, lung, read-out: T1/2 lung) was 2.17 h. The AUC ([5]; female, mouse, ip, plasma) was 5000 ng·h/mL, the Cmax ([5]; female, mouse, ip, plasma) was 12100 ± 2900 ng/mL and the half-life ([5]; female, mouse, ip, plasma, read-out: T1/2 plasma) was 1.06 h. For the same compound, the Kp ([5]; female, mouse, lung / plasma, ip, read-out: lung/plasma ratio) was 0.21, the “mode of PqsA inhibition” value [1] was “competitive inhibitors with respect to ATP” and the IC50 [2, 6] was 21.5 µM. For the same compound, the IC50 [2, 7] was 25.5 µM, the “toxicity in words, imaging, MRC5” value [2] was “significant toxicity in the tested range” and the IC50 [3] was 10.6 µM. For the same compound, the “toxicity in words, CellTiter Glo, MRC5” value [3] was “significant toxicity in the tested range” and the “inhibition of pyocyanin production” value [4] was “neither inhibited pyocyanin production”.
